Assay results: patent US7244754B2, “2-methylthiazolidine-2,4-dicarboxylic acid and salts thereof for treatment of neurodegenerative diseases” (priority 2002, dated 2007)

What was measured:
MNRI mice = assay: Apoplexy model: occlusion of the middle cerebral artery in mice, infarction surface by neutral red staining; format: in vivo; details: application after or before occlusion, as in examples 3 and 4
Text: In another animal experiment model (apoplexy model) it could be shown (examples 3 and 4) that 2-MTDC as well as salts of 2-MTDC have a cerebroprotective effect.
The following test series deals with the examination of the neuroprotective effect of 2-MTDC-Na in application of 2-MTDC-Na after the ischemia.
Per test group 13 through 16 MNRI mice were employed. The middle cerebral artery of the mice was occluded according to the method of Welsh (F. A. Welsh, T. Sakamoto, A. E. McKee, R. E. Sims, J. Neurochem. 1987, 49, 846-851). For that purpose the mice are anesthetized with tribromoethanol (600 mg/kg body weight, intraperitoneally). Immediately after the anesthesia a small cavity was drilled into the mice cranium to lay open the middle cerebral artery. The strain as well as both arms of the middle cerebral artery were occluded via electro coagulation. Meanwhile the blood heat of the mice was kept on 37° C.±1° C. by utilizing a heating lamp. Subsequently the mice were kept at a surrounding temperature of 30° C. for another 2 h.
One group of mice was injected intraperitoneally 2-MTDC-Na (200 mg/kg 2-MTDC-Na dissolved in 0.9% NaCl solution) 15 minutes after and another group 60 minutes after the occlusion of the middle cerebral artery. A third group received the vehicle only (0.9% NaCl solution without 2-MTDC-Na).
For the following histologic examination 2 days after the occlusion of the middle cerebral artery the mice were anesthetized again with tribromoethanol and received intraperitoneally applied 0.5 ml of a 1.5% solution of neutral red (toluylene red, Acros Chimica) in addition. The brains were extracted and kept for 24 h in a fixative solution (4% formalin with phosphate buffer at pH 7.4).
The tissue on the surface of the brain which was not colored by neutral red was measured as surface region affected by infarction under utilizing a color analysis system (Kontron, Eching, Germany) (C. Backhauβ, C. Karkoutly, M. Welsh, J. Krieglstein, J. Pharmacol Toxicol Methods, 1992, 27 (2), 27-32).
The execution of the test according to example 3 was repeated whereas 2-MTDC-Na was applied one hour before the occlusion of the middle cerebral artery (MCA-O: occlusion of the middle cerebral artery).

dopaminergic neurons = assay: Intrastriatal sodium malonate lesion in rats; transmitters and metabolites in striatum and substantia nigra by HPLC; format: in vivo, Wistar rats; details: for activity of dopaminergic neurons (3-methoxytyramine concentration): lysine salt injected intraperitoneally four to five days before measuring, rats
striatum of rats = details: seven days after injecting the malonate; cited from earlier work

## CC1(C(=O)O)N[C@H](C(=O)O)CS1 (mixture of isomers) [2-MTDC, (2RS,4R)-2-methylthiazolidine-2,4-dicarboxylic acid]
MNRI mice
  infarction extent induced by occlusion of the cerebral artery (test series of examples 3 and 4): capable of reducing the infarction extent

## CC1(C(=O)O)NC(C(=O)O)CS1.NCCCCC(N)C(=O)O.NCCCCC(N)C(=O)O (centres unmarked) [2-MTDC-lys]
MNRI mice; listed as lysine salts of 2-MTDC
  infarction extent induced by occlusion of the cerebral artery (test series of examples 3 and 4): capable of reducing the infarction extent
Dopaminergic neurons; 2-MTDC-lys solely (no malonate), 2x0.8 mmol/kg i.p., four days after last application
  influence on the concentration of dopamine, DOPAC, HVA: no influence
Dopaminergic neurons; chosen dose rate, examination period of four days from last application
  effect on dopaminergic versus serotonergic neurons (5-HT, 5-HIAA): affects obviously dopaminergic neurons but not serotonergic neurons
Dopaminergic neurons
  activity of dopaminergic neurons (3-methoxytyramine concentration): long persistent activation
Dopaminergic neurons; listed as lysine salt of 2-MTDC
  activity of dopaminergic neurons (3-methoxytyramine concentration): intense activation of the dopaminergic neurons
Dopaminergic neurons; pretreatment 2x0.8 mmol/kg i.p., 2 μmol sodium malonate into left striatum, four days after last application
  effect of malonate on the reduction of dopamine and dopamine metabolite concentrations (neuroprotection): prevents the toxic effect of malonate
Dopaminergic neurons; treatment before malonate (prophylactic)
  neurodegeneration of nerve ends in the striatum and cell bodies in the substantia nigra: prevents the neurodegeneration

## C[C@@]1(C(=O)O)N[C@H](C(=O)O)CS1 [(2R,4R)-2-methylthiazolidine-2,4-dicarboxylic acid]
MNRI mice
  infarction extent induced by occlusion of the cerebral artery (test series of examples 3 and 4): capable of reducing the infarction extent

## C[C@]1(C(=O)O)N[C@H](C(=O)O)CS1 [(2S,4R)-2-methylthiazolidine-2,4-dicarboxylic acid]
MNRI mice
  infarction extent induced by occlusion of the cerebral artery (test series of examples 3 and 4): capable of reducing the infarction extent

## O=C([O-])CC(=O)[O-].[Na+].[Na+] [malonate, sodium malonate]
Striatum of rats
  concentration of dopamine in the striatum compared to the contralateral striatum: 6%
